Source: PubChem BioAssay (NCI)
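Following 48 hours of exposure in 96-well plates, responses at five concentrations were used to interpolate endpoints linearly. GI50 marks 50% less growth. Definition used: TGI = concentration required for complete inhibition of growth.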

Assays:
Assay in all cases: NCI anticancer screen, dose series, 48 h
[1] = test system: IGROV1 ovarian
[2] = test system: SNB-19 CNS
[3] = test system: TK-10 renal
[4] = test system: SK-MEL-28 melanoma
[5] = test system: OVCAR-4 ovarian
[6] = test system: MDA-MB-435
[7] = test system: A549 NSCLC
[8] = test system: EKVX NSCLC
[9] = test system: ACHN renal
[10] = test system: SF-295 CNS
[11] = test system: BT-549 breast
[12] = test system: KM12 colon
[13] = test system: OVCAR-5 ovarian
[14] = test system: SK-OV-3 ovarian
[15] = test system: PC-3 prostate
[16] = test system: RPMI-8226 leukemia
[17] = test system: UACC-62 melanoma
[18] = test system: NCI/ADR-RES ovarian
[19] = test system: MDA-MB-231 breast
[20] = test system: OVCAR-3 ovarian
[21] = test system: OVCAR-8 ovarian
[22] = test system: SK-MEL-2 melanoma
[23] = test system: RXF 393 renal
[24] = test system: NCI-H460 lung
[25] = test system: NCI-H522 lung
[26] = test system: NCI-H23 lung
[27] = test system: MOLT-4 leukemia
[28] = test system: HOP-62 NSCLC
[29] = test system: K-562 leukemia
[30] = test system: HCC-2998 colon
[31] = test system: DU-145 prostate
[32] = test system: CAKI-1 renal
[33] = test system: T-47D breast
[34] = test system: SW-620 colon
[35] = test system: HT29 colon
[36] = test system: UO-31 renal
[37] = test system: NCI-H226 lung
[38] = test system: LOX IMVI melanoma
[39] = test system: COLO 205 colon
[40] = test system: SF-539 CNS
[41] = test system: U251 CNS
[42] = test system: HCT-15 colon
[43] = test system: HOP-92 NSCLC
[44] = test system: SK-MEL-5 melanoma
[45] = test system: 786-0 renal
[46] = test system: CCRF-CEM leukemia
[47] = test system: UACC-257 melanoma
[48] = test system: HCT-116 colon
[49] = test system: SF-268 CNS
[50] = test system: MALME-3M melanoma
[51] = test system: SN12C renal
[52] = test system: HS 578T breast
[53] = test system: MCF7 breast

O=C(CN(/C=C/C(=O)C(F)(F)F)c1ccc(Cl)cc1)c1ccc(F)cc1
GI50 [1]: 12.5 µM | TGI [1]: 26.2 µM | GI50 [2]: 16.2 µM | TGI [2]: 34.2 µM | GI50 [3]: 18.9 µM | TGI [3]: 74 µM | GI50 [4]: 16.5 µM | TGI [4]: 36.4 µM | GI50 [5]: 15.5 µM | TGI [5]: 38 µM | GI50 [6]: 12.1 µM | TGI [6]: 32.3 µM | GI50 [7]: 18.7 µM | TGI [7]: 81.1 µM | GI50 [8]: 19.2 µM | TGI [8]: 43.6 µM | GI50 [9]: 4.17 µM | TGI [9]: 27 µM | GI50 [10]: 15.2 µM | TGI [10]: 34.1 µM | GI50 [11]: 15.1 µM | TGI [11]: 35.3 µM | GI50 [12]: 5.61 µM | TGI [12]: 22.7 µM | GI50 [13]: 23.6 µM | TGI [13]: 53.5 µM | GI50 [14]: 31.5 µM | TGI [14]: 91.1 µM | GI50 [15]: 11.8 µM | TGI [15]: 25.9 µM | GI50 [16]: 10.1 µM | TGI [16]: 51.3 µM | GI50 [17]: 3.04 µM | TGI [17]: 15.2 µM | GI50 [18]: 14.4 µM | TGI [18]: 31.7 µM | GI50 [19]: 14.2 µM | TGI [19]: 27.3 µM | GI50 [20]: 13 µM | TGI [20]: 28.2 µM | GI50 [21]: 15.2 µM | TGI [21]: 38.4 µM | GI50 [22]: 8.75 µM | TGI [22]: 21.4 µM | GI50 [23]: 42.9 µM | TGI [23]: > 100 µM | GI50 [24]: 11.9 µM | TGI [24]: 26.3 µM | GI50 [25]: 3.6 µM | TGI [25]: 17.4 µM | GI50 [26]: 12.9 µM | TGI [26]: 26.2 µM | GI50 [27]: 5.59 µM | TGI [27]: 28.4 µM | GI50 [28]: 30.3 µM | TGI [28]: > 100 µM | GI50 [29]: 2.69 µM | TGI [29]: 22.2 µM | GI50 [30]: 12.9 µM | TGI [30]: 25.7 µM | GI50 [31]: 16.1 µM | TGI [31]: 40.8 µM | GI50 [32]: 10.4 µM | TGI [32]: 32.7 µM | GI50 [33]: 14.9 µM | TGI [33]: > 100 µM | GI50 [34]: 15.1 µM | TGI [34]: 32.7 µM | GI50 [35]: 17.9 µM | TGI [35]: > 100 µM | GI50 [36]: 10.9 µM | TGI [36]: 23.3 µM | GI50 [37]: 16.2 µM | TGI [37]: 30.7 µM | GI50 [38]: 0.736 µM | TGI [38]: 16.9 µM | GI50 [39]: 17.2 µM | TGI [39]: 46.5 µM | GI50 [40]: 18.9 µM | TGI [40]: 37.6 µM | GI50 [41]: 11 µM | TGI [41]: 23 µM | GI50 [42]: 4.21 µM | TGI [42]: 21.4 µM | GI50 [43]: 18 µM | TGI [43]: 36.8 µM | GI50 [44]: 14.6 µM | TGI [44]: 27.8 µM | GI50 [45]: 18 µM | TGI [45]: 42.3 µM | GI50 [46]: 3.39 µM | TGI [46]: 19.8 µM | GI50 [47]: 12.8 µM | TGI [47]: 29.9 µM | GI50 [48]: 14.5 µM | TGI [48]: 52.3 µM | GI50 [49]: 12.3 µM | TGI [49]: 30 µM | GI50 [50]: 13.7 µM | TGI [50]: 28.9 µM | GI50 [51]: 16.1 µM | TGI [51]: 29.6 µM | GI50 [52]: 4.95 µM | TGI [52]: 9.71 µM | GI50 [53]: 14 µM | TGI [53]: 33.2 µM
